Data as given in patent US12077503B2, “Substituted cyclic amides and their use as herbicides” (FMC CORPORATION, priority 2015, dated 2024).

Key:
Assay in all cases: Test C postemergence
Assay type in all cases: in vivo
Conditions in all cases: scale 0 to 100, 0 no effect, 100 complete control
[1] = tested on: Galium (catchweed bedstraw, Galium aparine)
How it was run: (§1)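 Scores of 0 to 100 reflect visual comparison with control plants, where 0 means no effect and 100 complete control, made 13 to 15 d after treatment. Application was preemergence to seeds in loam-sand soil or postemergence to plants 2 to 18 cm tall in peat-based mix, using a surfactant-containing solvent formulation.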

Kochia (Kochia scoparia) = tested on: Kochia (Kochia scoparia)
How it was run: as §1

[2] = tested on: barnyardgrass (Echinochloa crus-galli)
How it was run: as §1

[3] = tested on: blackgrass (Alopecurus myosuroides)
How it was run: as §1

[4] = tested on: chickweed (common chickweed, Stellaria media)
How it was run: as §1

corn (Zea mays) = tested on: corn (Zea mays)
How it was run: as §1

[5] = tested on: crabgrass, large (large crabgrass, Digitaria sanguinalis)
How it was run: as §1

[6] = tested on: foxtail, giant (giant foxtail, Setaria faberii)
How it was run: as §1

[7] = tested on: johnsongrass (Sorghum halepense)
How it was run: as §1

[8] = tested on: lambsquarters (Chenopodium album)
How it was run: as §1

[9] = tested on: morningglory (Ipomoea coccinea)
How it was run: as §1

[10] = tested on: nutsedge, yellow (yellow nutsedge, Cyperus esculentus)
How it was run: as §1

[11] = tested on: oat, wild (wild oat, Avena fatua)
How it was run: as §1

[12] = tested on: oilseed rape (Brassica napus)
How it was run: as §1

[13] = tested on: pigweed (Amaranthus retroflexus)
How it was run: as §1

[14] = tested on: ragweed (common ragweed, Ambrosia elatior)
How it was run: as §1

[15] = tested on: ryegrass, Italian (Italian ryegrass, Lolium multiflorum)
How it was run: as §1

soybean (Glycine max) = tested on: soybean (Glycine max)
How it was run: as §1

[16] = tested on: velvetleaf (Abutilon theophrasti)
How it was run: as §1

[17] = tested on: waterhemp (common waterhemp, Amaranthus rudis)
How it was run: as §1

[18] = tested on: wheat (winter wheat, Triticum aestivum)
How it was run: as §1

## CN1C[C@H](c2ccc(F)c(F)c2)[C@@H](C(=O)Nc2ccccc2F)C1=O [Compound 596, (3S,4S)-4-(3,4-difluorophenyl)-N-(2-fluorophenyl)-1-methyl-2-oxo-3-pyrrolidinecarboxamide]
[1]; 31 g ai/ha
  Plant response rating, Galium: 40
[1]; 62 g ai/ha
  Plant response rating, Galium: 45
[1]; 125 g ai/ha
  Plant response rating, Galium: 60
[1]; 250 g ai/ha
  Plant response rating, Galium: 60
Kochia (Kochia scoparia); 31 g ai/ha
  Plant response rating, Kochia: 30
Kochia (Kochia scoparia); 62 g ai/ha
  Plant response rating, Kochia: 30
Kochia (Kochia scoparia); 125 g ai/ha
  Plant response rating, Kochia: 35
Kochia (Kochia scoparia); 250 g ai/ha
  Plant response rating, Kochia: 60
[2]; 31 g ai/ha
  Plant response rating, Barnyardgrass: 0
[2]; 62 g ai/ha
  Plant response rating, Barnyardgrass: 30
[2]; 125 g ai/ha
  Plant response rating, Barnyardgrass: 45
[2]; 250 g ai/ha
  Plant response rating, Barnyardgrass: 65
[3]; 31 g ai/ha
  Plant response rating, Blackgrass: 0
[3]; 62 g ai/ha
  Plant response rating, Blackgrass: 0
[3]; 125 g ai/ha
  Plant response rating, Blackgrass: 0
[3]; 250 g ai/ha
  Plant response rating, Blackgrass: 10
[4]; 31 g ai/ha
  Plant response rating, Chickweed: 20
[4]; 62 g ai/ha
  Plant response rating, Chickweed: 20
[4]; 125 g ai/ha
  Plant response rating, Chickweed: 25
[4]; 250 g ai/ha
  Plant response rating, Chickweed: 80
Corn (Zea mays); 31 g ai/ha
  Plant response rating, Corn: 0
Corn (Zea mays); 62 g ai/ha
  Plant response rating, Corn: 0
Corn (Zea mays); 125 g ai/ha
  Plant response rating, Corn: 0
Corn (Zea mays); 250 g ai/ha
  Plant response rating, Corn: 10
[5]; 31 g ai/ha
  Plant response rating, Crabgrass, Large: 30
[5]; 62 g ai/ha
  Plant response rating, Crabgrass, Large: 65
[5]; 125 g ai/ha
  Plant response rating, Crabgrass, Large: 65
[5]; 250 g ai/ha
  Plant response rating, Crabgrass, Large: 75
[6]; 31 g ai/ha
  Plant response rating, Foxtail, Giant: 10
[6]; 62 g ai/ha
  Plant response rating, Foxtail, Giant: 20
[6]; 125 g ai/ha
  Plant response rating, Foxtail, Giant: 50
[6]; 250 g ai/ha
  Plant response rating, Foxtail, Giant: 80
[7]; 31 g ai/ha
  Plant response rating, Johnsongrass: 0
[7]; 62 g ai/ha
  Plant response rating, Johnsongrass: 0
[7]; 125 g ai/ha
  Plant response rating, Johnsongrass: 0
[7]; 250 g ai/ha
  Plant response rating, Johnsongrass: 10
[8]; 31 g ai/ha
  Plant response rating, Lambsquarters: 35
[8]; 62 g ai/ha
  Plant response rating, Lambsquarters: 35
[8]; 125 g ai/ha
  Plant response rating, Lambsquarters: 40
[8]; 250 g ai/ha
  Plant response rating, Lambsquarters: 55
[9]; 31 g ai/ha
  Plant response rating, Morningglory: 0
[9]; 62 g ai/ha
  Plant response rating, Morningglory: 10
[9]; 125 g ai/ha
  Plant response rating, Morningglory: 25
[9]; 250 g ai/ha
  Plant response rating, Morningglory: 50
[10]; 31 g ai/ha
  Plant response rating, Nutsedge, Yellow: 0
[10]; 62 g ai/ha
  Plant response rating, Nutsedge, Yellow: 0
[10]; 125 g ai/ha
  Plant response rating, Nutsedge, Yellow: 10
[10]; 250 g ai/ha
  Plant response rating, Nutsedge, Yellow: 10
[11]; 31 g ai/ha
  Plant response rating, Oat, Wild: 0
[11]; 62 g ai/ha
  Plant response rating, Oat, Wild: 0
[11]; 125 g ai/ha
  Plant response rating, Oat, Wild: 0
[11]; 250 g ai/ha
  Plant response rating, Oat, Wild: 5
[12]; 31 g ai/ha
  Plant response rating, Oilseed Rape: 0
[12]; 62 g ai/ha
  Plant response rating, Oilseed Rape: 0
[12]; 125 g ai/ha
  Plant response rating, Oilseed Rape: 30
[12]; 250 g ai/ha
  Plant response rating, Oilseed Rape: 30
[13]; 31 g ai/ha
  Plant response rating, Pigweed: 10
[13]; 62 g ai/ha
  Plant response rating, Pigweed: 10
[13]; 125 g ai/ha
  Plant response rating, Pigweed: 35
[13]; 250 g ai/ha
  Plant response rating, Pigweed: 30
[14]; 31 g ai/ha
  Plant response rating, Ragweed: 0
[14]; 62 g ai/ha
  Plant response rating, Ragweed: 0
[14]; 125 g ai/ha
  Plant response rating, Ragweed: 0
[14]; 250 g ai/ha
  Plant response rating, Ragweed: 15
[15]; 31 g ai/ha
  Plant response rating, Ryegrass, Italian: 0
[15]; 62 g ai/ha
  Plant response rating, Ryegrass, Italian: 0
[15]; 125 g ai/ha
  Plant response rating, Ryegrass, Italian: 0
[15]; 250 g ai/ha
  Plant response rating, Ryegrass, Italian: 0
Soybean (Glycine max); 31 g ai/ha
  Plant response rating, Soybean: 0
Soybean (Glycine max); 62 g ai/ha
  Plant response rating, Soybean: 0
Soybean (Glycine max); 125 g ai/ha
  Plant response rating, Soybean: 10
Soybean (Glycine max); 250 g ai/ha
  Plant response rating, Soybean: 0
[16]; 31 g ai/ha
  Plant response rating, Velvetleaf: 35
[16]; 62 g ai/ha
  Plant response rating, Velvetleaf: 35
[16]; 125 g ai/ha
  Plant response rating, Velvetleaf: 50
[16]; 250 g ai/ha
  Plant response rating, Velvetleaf: 55
[17]; 31 g ai/ha
  Plant response rating, Waterhemp: 0
[17]; 62 g ai/ha
  Plant response rating, Waterhemp: 0
[17]; 125 g ai/ha
  Plant response rating, Waterhemp: 20
[17]; 250 g ai/ha
  Plant response rating, Waterhemp: 30
[18]; 31 g ai/ha
  Plant response rating, Wheat: 0
[18]; 62 g ai/ha
  Plant response rating, Wheat: 0
[18]; 125 g ai/ha
  Plant response rating, Wheat: 0
[18]; 250 g ai/ha
  Plant response rating, Wheat: 0
